From patent publication EP4818169A1, “CRYSTAL FORM OF COMPOUND SALT, PREPARATION METHOD THEREFOR AND USE THEREOF” (Apeiron Therapeutics (Hong Kong) Ltd., priority 2024, dated 2025)
≈ marks a conversion by molar mass, not a printed value.

Legend:
[1] = Physicochemical stability on open storage (XRPD and HPLC); details: for Crystalline Form Change: merged cell for all storage conditions (40°C/75%RH, 60 °C, 25°C/60%RH, open) and times (2 and 4 weeks), XRPD
Protocol: The high performance liquid chromatography (HPLC) method for determining enantiomeric excess (%) used in the present application is shown in Table 5.
The purity testing method described in the present application is shown as follows.
For chemical stability studies, two open samples were prepared at each time point for each condition. Approximately 2 mg of maleate crystalline form A was transferred into a 20 mL glass vial, which was then covered with perforated aluminum foil to serve as an open sample. Samples were stored at 25°C/60% RH, 40°C/75% RH, and 60°C.
For physical stability studies, two open samples were prepared at each time point for each condition. Approximately 10 mg of maleate crystalline form A was transferred into a 20 mL glass vial, which was covered with perforated aluminum foil to serve as an open sample. Samples were stored at 25°C/60% RH, 40°C/75% RH, and 60°C.
All samples were stored for 4 weeks under the specified storage conditions. At predetermined time points (initial, 2 weeks, and 4 weeks), the corresponding samples were withdrawn and subject to chemical and physical evaluations, respectively. The physicochemical stability was assessed by XRPD and HPLC.
For chemical stability studies, two open samples were prepared at each time point for each condition. Approximately 2 mg of p-toluenesulfonate crystalline form A was transferred into a 20 mL glass vial, which was then covered with perforated aluminum foil to serve as an open sample. Samples were stored at 25°C/60% RH, 40°C/75% RH, and 60°C.
For physical stability studies, two open samples were prepared at each time point for each condition. Approximately 10 mg of p-toluenesulfonate crystalline form A was transferred into a 20 mL glass vial, which was covered with perforated aluminum foil to serve as an open sample. Samples were stored at 25°C/60% RH, 40°C/75% RH, and 60°C, respectively.

[2] = Hygroscopicity by dynamic vapor sorption (DVS) test; format: physicochemical; details: for hygroscopic weight gain: DVS, 25°C, from 0% RH to 80% RH; for crystalline form after the DVS test: XRPD before and after DVS test
Protocol: Moisture adsorption and desorption data were obtained using a dynamic vapor sorption device (Model TA Discovery SA). Samples were equilibrated at 25°C/0% RH for 300 min at the start of the experiment. Thereafter, humidity was varied from 0% to 95% RH in 5% RH increments, with nitrogen used to control and maintain the humidity. Equilibration during testing was defined as a mass change rate of < 0.02% per minute over 10 min, with a maximum equilibration time of 120 min.
From 0% RH to 80% RH, the hygroscopic weight gain was approximately 0.25%, indicating very low hygroscopicity.

[3] = Dynamic solubility in different media (HPLC); format: physicochemical; details: for Solubility / Crystalline Form Change / pH: 24 h; for Solubility: 37°C; for Crystalline Form Change: XRPD of precipitated solids; for pH: pH of supernatant; for solubility at 24 h: 37 °C, thermodynamic from solid
Protocol: The preparation method of simulated gastrointestinal fluid involved in the present disclosure is: SGF: Transfer 2.02 g of sodium chloride into a 1000 mL beaker and add 950 mL of purified water to dissolve. Next, adjust the pH to 1.2 with 12 N hydrochloric acid. Transfer the solution to a 1000 mL volumetric flask and make up to 1000 mL with purified water.
FeSSIF: Transfer 4.04 g of sodium hydroxide, 8.65 g of acetic acid, and 11.87 g of sodium chloride into a 1000 mL volumetric flask, and dissolve with 950 mL of purified water. Titrate the obtained solution to pH 5.0 with 1M sodium hydroxide or 1M hydrochloric acid aqueous solution, and then make up to 1000 mL with purified water. Finally, weigh 11.20 g of SIF powder, add it to the above 1000 mL of pH 5.0 solution, and stir magnetically until clear.
A total of 10 mg of maleate crystalline form A was transferred into a dry, clean 4 mL glass vial. Then, 1 mL of simulated gastric fluid (SGF), fed state simulated intestinal fluid (FeSSIF), or purified water was added to the vial. All vials were placed on a shaker and agitated at 200 rpm at 37°C.
At the predetermined time point (24 h), 200 µL of the sample was withdrawn from the vial into a centrifuge tube and centrifuged at 90,000 rpm for 5 min. An appropriate amount of the supernatant was then diluted and analyzed by HPLC to determine the solubility.
The remaining 800 µL of suspension in the vial was centrifuged at 8000 rpm for 10 min. The pH of the resulting supernatant was measured, and the precipitated solids were vacuum-dried at 40°C for approximately 16 h. The dried precipitated solids were then characterized by X-ray powder diffraction.
A total of 10 mg of p-toluenesulfonate crystalline form A was transferred into a dry, clean 4 mL glass vial. Then, 1 mL of simulated gastric fluid (SGF), fed state simulated intestinal fluid (FeSSIF), or purified water was added to the vial. All vials were placed on a shaker and agitated at 200 rpm at 37°C.
At the predetermined time point (24 h), 200 µL of the sample was withdrawn from the vial into a centrifuge tube and centrifuged at 90,000 rpm for 5 min. An appropriate amount of the supernatant was then diluted and analyzed by high performance liquid chromatography to determine the solubility.

[4] = Mechanical stability: jet milling; format: physicochemical; details: feed and milling pressure 5.5 bar, 23 °C; XRPD
Protocol: The milled powder was then analyzed by XRPD and PLM, with results shown in Figure 27 and Figure 28, respectively.

[5] = Mechanical stability: pressurization method; format: physicochemical; details: 40 MPa held for 1 min, 5 mm die; XRPD
Protocol: Pressurization method: Maleate crystalline form A was weighed and transferred into a 5 mm-diameter die. The upper piston was then manually driven down into the die until a pressure of 40 MPa was reached and held for 1 min. Subsequently, the sample was removed and manually ground into a powder. Finally, the resulting powder was analyzed by XRPD.

[6] = Stability of the crystalline form in the formulation (tablet compression with microcrystalline cellulose); format: physicochemical; details: 50% (w/w) with microcrystalline cellulose PH102, tablets compressed at 4.2 kN and 9.2 kN; XRPD
Protocol: Equal amounts of maleate crystalline form A and microcrystalline cellulose PH102 were weighed to prepare a powder formulation comprising 50% (w/w) maleate crystalline form A, and the two components were mixed thoroughly.
A total of 200 mg of the uniformly mixed powder was transferred into an 8 mm-diameter die of a rotary tablet press. One tablet was compressed at 4.2 kN and another at 9.2 kN.
The resulting tablets were characterized for weight and hardness.

With CN(C(=O)c1ccc2nc(N)c3cncn3c2c1)[C@@H]1COc2cc(C(F)(F)F)ccc21 [p-toluenesulfonate crystalline form A, (S)-4-amino-N-methyl-N-(6-(trifluoromethyl)-2,3-dihydrobenzofuran-3-yl)imidazo[1,5-a]quinoxaline-8-carboxamide] the Appearance ([1]; 25°C/60%RH (Open), 2 weeks) was “Off-white powder”, the “Purity (%)” value ([1]; 25°C/60%RH (Open), 2 weeks) was 99.83% and the “ee (%)” value ([1]; 25°C/60%RH (Open), 2 weeks) was 100.00%. The Appearance ([1]; 25°C/60%RH (Open), 4 weeks) was “Off-white powder”, the “Purity (%)” value ([1]; 25°C/60%RH (Open), 4 weeks) was 99.84% and the “ee (%)” value ([1]; 25°C/60%RH (Open), 4 weeks) was 100.00%. For the same compound, the Appearance ([1]; 40°C/75%RH (Open), 2 weeks) was “Off-white powder”, the “Purity (%)” value ([1]; 40°C/75%RH (Open), 2 weeks) was 99.84% and the “ee (%)” value ([1]; 40°C/75%RH (Open), 2 weeks) was 100.00%. For the same compound, the Appearance ([1]; 40°C/75%RH (Open), 4 weeks) was “Off-white powder”, the “Purity (%)” value ([1]; 40°C/75%RH (Open), 4 weeks) was 99.80% and the “ee (%)” value ([1]; 40°C/75%RH (Open), 4 weeks) was 100.00%. The Appearance ([1]; 60 °C (Open), 2 weeks) was “Off-white powder”, the “Purity (%)” value ([1]; 60 °C (Open), 2 weeks) was 99.66% and the “ee (%)” value ([1]; 60 °C (Open), 2 weeks) was 100.00%. The Appearance ([1]; 60 °C (Open), 4 weeks) was “Off-white powder”, the “Purity (%)” value ([1]; 60 °C (Open), 4 weeks) was 99.50% and the “ee (%)” value ([1]; 60 °C (Open), 4 weeks) was 100.00%. The Appearance ([1]; Initial) was “Off-white powder”, the “Purity (%)” value ([1]; Initial) was 99.81% and the “ee (%)” value ([1]; Initial) was 100.00%. For the same compound, the “Crystalline Form Change” value [1] was “None”, the hygroscopic weight gain [2] was “approximately 0.37%” and the “crystalline form after the DVS test” value [2] was “did not change”. For the same compound, the “Solubility” value ([3]; FeSSIF) was 365.38 µg/mL (≈ 855 µM), the “Crystalline Form Change” value ([3]; FeSSIF) was “None” and the “Solubility” value ([3]; H2O) was 248.78 µg/mL (≈ 582 µM). For the same compound, the “Crystalline Form Change” value ([3]; H2O) was “None”, the “Solubility” value ([3]; SGF) was 293.98 µg/mL (≈ 688 µM) and the “Crystalline Form Change” value ([3]; SGF) was “None”. The pH ([3]; FeSSIF) was 4.78, the pH ([3]; H2O) was 3.19 and the pH ([3]; SGF) was 0.98.

In the case of CN(C(=O)c1ccc2nc(N)c3cncn3c2c1)[C@@H]1COc2cc(C(F)(F)F)ccc21 [Maleate crystalline form A, (S)-4-amino-N-methyl-N-(6-(trifluoromethyl)-2,3-dihydrobenzofuran-3-yl)imidazo[1,5-a]quinoxaline-8-carboxamide], the Appearance ([1]; 25°C/60%RH (Open), 2 weeks) is reported as “Off-white powder”, the “Purity (%)” value ([1]; 25°C/60%RH (Open), 2 weeks) is reported as 99.68% and the “ee (%)” value ([1]; 25°C/60%RH (Open), 2 weeks) is reported as 100.00%. The Appearance ([1]; 25°C/60%RH (Open), 4 weeks) was “Off-white powder”, the “Purity (%)” value ([1]; 25°C/60%RH (Open), 4 weeks) was 99.67% and the “ee (%)” value ([1]; 25°C/60%RH (Open), 4 weeks) was 100.00%. The Appearance ([1]; 40°C/75%RH (Open), 2 weeks) was “Off-white powder”, the “Purity (%)” value ([1]; 40°C/75%RH (Open), 2 weeks) was 99.69% and the “ee (%)” value ([1]; 40°C/75%RH (Open), 2 weeks) was 100.00%. For the same compound, the Appearance ([1]; 40°C/75%RH (Open), 4 weeks) was “Off-white powder”, the “Purity (%)” value ([1]; 40°C/75%RH (Open), 4 weeks) was 99.67% and the “ee (%)” value ([1]; 40°C/75%RH (Open), 4 weeks) was 100.00%. The Appearance ([1]; 60 °C (Open), 2 weeks) was “Off-white powder”, the “Purity (%)” value ([1]; 60 °C (Open), 2 weeks) was 99.69% and the “ee (%)” value ([1]; 60 °C (Open), 2 weeks) was 100.00%. For the same compound, the Appearance ([1]; 60 °C (Open), 4 weeks) was “Off-white powder”, the “Purity (%)” value ([1]; 60 °C (Open), 4 weeks) was 99.67% and the “ee (%)” value ([1]; 60 °C (Open), 4 weeks) was 100.00%. For the same compound, the Appearance ([1]; Initial) was “Off-white powder”, the “Purity (%)” value ([1]; Initial) was 99.66% and the “ee (%)” value ([1]; Initial) was 100.00%. For the same compound, the “Crystalline Form Change” value [1] was “None”, the hygroscopic weight gain [2] was “approximately 0.25%” and the “crystalline form after the DVS test” value [2] was “did not change”. The “crystalline form after jet milling” value [4] was “retained its crystalline form”, the “crystalline form after pressurization” value [5] was “retained its crystalline form” and the “Crystalline Form Change” value ([3]; FeSSIF) was “None”. For the same compound, the “Solubility” value ([3]; H2O) was 42.12 µg/mL, the “Crystalline Form Change” value ([3]; H2O) was “None” and the “Crystalline Form Change” value ([3]; SGF) was “None”. The solubility at 24 h ([3]; fed state simulated intestinal fluid (FeSSIF), pH 5, fessif, FeSSIF) was 258 µg/mL, the pH ([3]; FeSSIF) was 4.83 and the pH ([3]; H2O) was 4.17. For the same compound, the pH ([3]; SGF) was 0.96, the solubility at 24 h ([3]; simulated gastric fluid (SGF), pH 1.2, simulated gastric fluid, SGF) was 443 µg/mL and the “crystallinity in the formulation” value [6] was “remained relatively stable”.
